Consider one compound from patent publication US20060063774A1, “Phosphodiesterase inhibitor compounds and nitric oxide donors” (priority 2004, published 2006).

This test deals with human corpus cavernosum tissue. Briefly: In vitro comparative relaxation responses in phenylephrine-contracted human corpus cavernosum tissue strips (organ chamber, isometric tension). The test is classed as cell-based. The conditions noted are these: 10 μM and 30 μM, cumulative additions; tissue contracted with phenylephrine 7×10^−7 M; −100% = tone after papaverine 10^−4 M; comparator equimolar dipyridamole; FIG. 40. The text has this:
FIG. 40 Graph of comparative in vitro relaxation effects of dipyridamole and Example 1 in phenylephrine induced contacted human corpus cavernosum tissue.
Human corpus cavernosum tissue biopsies were obtained at the time of penile prosthesis implantation from impotent men. The tissue was maintained in a chilled Krebs-bicarbonate solution prior to assay. The tissue was cut into strips of 0.3×0.3×1 cm and suspended in organ chambers for isometric tension measurement. Tissues were incrementally stretched until optimal isometrtic tension for contraction was obtained. Once this was achieved, the tissues were contracted with phenylephine (7×10^−7 M) and once a stable contraction was achieved, the tissues were exposed to either dipyridamole or Example 1 (10^−6 to 3×10^−5 M) by cumulative additions to the chamber. At the end of the experiment papaverine (10^−4 M) is added to obtain maximal relaxation. […] Data are expressed as the percent loss in tone from the phenylephrine-induced contraction (0%=phenylephrine contraction; −100%=tone after the administration of papaverine).

On to `CC(C)(CC(=O)OCCN(CCOC(=O)CC(C)(C)SN=O)c1nc(N2CCCCC2)c2nc(N(CCOC(=O)CC(C)(C)SN=O)CCOC(=O)CC(C)(C)SN=O)nc(N3CCCCC3)c2n1)SN=O` [Example 1, 2,6-bis(diethyl(3-methyl-3(nitrosothiol)butyric acid ester)amino)-4,8-dipiperidinopyrimido-[5,4-d]-pyrimidine], for which the “relaxation of the phenylephrine-induced contraction (percent loss in tone), compared with dipyridamole” value was “more efficacious in relaxing the phenylephrine-induced contaction than is an equimolar dose of the phosphodiesterase inhibitor dipyridamole”.
